Reference: patent US20250120927A1, “CNDP2 MODULATORS AND METHODS FOR THEIR USE” (Metabolon Inc., priority 2023, published 2025)

Target: CNDP2 (Homo sapiens (Human), UniProt Q96KP4)
Assay: CNDP2 enzyme inhibition assay (Met-His hydrolysis, free histidine by o-phthaldialdehyde fluorescence), dose-response
Type: biochemical
Details: 50 nM purified CNDP2 (Sino Biological), 1 mM Met-His substrate, 30 minutes at 37° C.
Protocol: To identify optimal conditions for identifying novel inhibitors of CNDP2, enzyme assays were performed with varied sources of purified enzyme, concentrations of enzyme, peptide substrates, concentrations of peptide substrates and metal cofactors. […] The reaction mixture was incubated for 30 minutes at 37° C. before it was quenched with an equal volume of 1% TCA. Free histidine was quantified after derivatization with a fluorophore (o-phthaldialdehyde from Sigma-Aldrich, excitation 340 nm, emission 460 nm). The reaction was conducted in an automation-friendly format to meet future screening throughput demands. A histidine titration standard curve was also included to enable conversion of fluorescence signal to molar concentration of histidine released by the hydrolysis reaction and to ensure the linearity of the fluorescence signal vs. free histidine.
Compounds of Formula (I) disclosed herein were screened for potency in inhibiting CNDP2 enzyme activity in a dose-response experiment. Bestatin was included with each batch of test molecules as a benchmark for assay quality control.

CNDP2, sequence (Q96KP4 whole entry): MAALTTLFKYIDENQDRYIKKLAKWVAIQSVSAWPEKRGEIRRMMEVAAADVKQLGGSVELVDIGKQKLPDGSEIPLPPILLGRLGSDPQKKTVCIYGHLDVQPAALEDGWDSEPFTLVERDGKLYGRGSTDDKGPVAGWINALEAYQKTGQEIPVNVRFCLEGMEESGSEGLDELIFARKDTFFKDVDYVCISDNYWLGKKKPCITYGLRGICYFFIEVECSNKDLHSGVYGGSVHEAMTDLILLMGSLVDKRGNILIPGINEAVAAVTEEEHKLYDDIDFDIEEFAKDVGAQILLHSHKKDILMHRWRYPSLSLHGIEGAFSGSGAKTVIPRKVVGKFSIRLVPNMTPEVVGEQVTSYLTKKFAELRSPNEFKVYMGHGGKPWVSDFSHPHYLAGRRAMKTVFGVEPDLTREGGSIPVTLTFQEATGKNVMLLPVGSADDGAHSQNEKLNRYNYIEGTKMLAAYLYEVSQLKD

| IC50 (TABLE 1) | IC50 (TABLE 2) | Compound |
| --- | --- | --- |
| ≥ 1000 nM |  | N[C@H](Cc1ccccc1)[C@H](O)C(=O)NC(C(=O)O)c1ccccc1 (stereo partly drawn) [Compound 3, 2-[[(2S,3R)-3-amino-2-hydroxy-4-phenyl-butanoyl]amino]-2-phenyl-acetic acid] |
| 100 to 1000 nM |  | N[C@H](Cc1ccccc1)[C@H](O)C(=O)N[C@H](C(=O)O)C1CCCC1 [Compound 4, (2S)-2-[[(2S,3R)-3-amino-2-hydroxy-4-phenyl-butanoyl]amino]-2-cyclopentyl-acetic acid] |
| 100 to 1000 nM |  | N[C@H](Cc1ccccc1)[C@H](O)C(=O)N[C@H](C(=O)O)C1CCCCC1 [Compound 5, (2S)-2-[[(2S,3R)-3-amino-2-hydroxy-4-phenyl-butanoyl]amino]-2-cyclohexyl-acetic acid] |
| ≥ 1000 nM |  | COc1ccccc1[C@H](NC(=O)[C@@H](O)[C@H](N)Cc1ccccc1)C(=O)O [Compound 8, (2S)-2-[[(2S,3R)-3-amino-2-hydroxy-4-phenyl-butanoyl]amino]-2-(2-methoxyphenyl)acetic acid] |
| ≥ 1000 nM |  | N[C@H](Cc1ccccc1)[C@H](O)C(=O)N[C@H](C(=O)O)c1cccnc1 [Compound 9, (2S)-2-[[(2S,3R)-3-amino-2-hydroxy-4-phenyl-butanoyl]amino]-2-(3-pyridyl)acetic acid] |
| < 100 nM |  | N[C@H](Cc1ccccc1)[C@H](O)C(=O)NC(C(=O)O)c1cccc(C(F)(F)F)c1 (stereo partly drawn) [Compound 10, 2-[[(2S,3R)-3-amino-2-hydroxy-4-phenyl-butanoyl]amino]-2-[3-(trifluoromethyl)phenyl]acetic acid] |
| ≥ 1000 nM |  | N[C@H](Cc1ccccc1)[C@H](O)C(=O)N[C@@H](Cc1ccccc1C(F)(F)F)C(=O)O [Compound 11, 2-[[(2S,3R)-3-amino-2-hydroxy-4-phenyl-butanoyl]amino]-3-[2-(trifluoromethyl)phenyl]propanoic acid] |
| ≥ 1000 nM |  | CC(c1ccccc1)[C@H](NC(=O)[C@@H](O)[C@H](N)Cc1ccccc1)C(=O)O (stereo partly drawn) [Compound 14, 2-[[(2S,3R)-3-amino-2-hydroxy-4-phenyl-butanoyl]amino]-3-phenyl-butanoic acid] |
| ≥ 1000 nM |  | N[C@H](Cc1ccccc1)[C@H](O)C(=O)NC1(C(=O)O)CCCC1 [Compound 15, 1-[[(2S,3R)-3-amino-2-hydroxy-4-phenyl-butanoyl]amino]cyclopentane carboxylic acid] |
| 100 to 1000 nM |  | N[C@H](Cc1ccccc1)[C@H](O)C(=O)NC(Cc1ccc(C(F)(F)F)cc1)C(=O)O (stereo partly drawn) [Compound 16, 2-[[(2S,3R)-3-amino-2-hydroxy-4-phenyl-butanoyl]amino]-3-[4-(trifluoromethyl)phenyl]propanoic acid] |
| < 100 nM |  | N[C@H](Cc1ccccc1)[C@H](O)C(=O)NC(CC1CCCC1)C(=O)O (stereo partly drawn) [Compound 17, 2-[[(2S,3R)-3-amino-2-hydroxy-4-phenyl-butanoyl]amino]-3-cyclopentyl-propanoic acid] |
| ≥ 1000 nM |  | COc1ccc(C[C@H](NC(=O)[C@@H](O)[C@H](N)Cc2ccccc2)C(=O)O)cc1 [Compound 18, (2S)-2-[[(2S,3R)-3-amino-2-hydroxy-4-phenyl-butanoyl]amino]-3-(4-methoxyphenyl)propanoic acid] |
| ≥ 1000 nM |  | N[C@H](Cc1ccccc1)[C@H](O)C(=O)N[C@@H](Cc1ccc(O)cc1)C(=O)O [Compound 19, 2-[[(2S,3R)-3-amino-2-hydroxy-4-phenyl-butanoyl]amino]-3-(4-hydroxyphenyl)propanoic acid] |
| ≥ 1000 nM |  | N[C@H](Cc1ccccc1)[C@H](O)C(=O)N[C@H](C(=O)O)C1CCC1 [Compound 20, (2S)-2-[[(2S,3R)-3-amino-2-hydroxy-4-phenyl-butanoyl]amino]-2-cyclobutyl-acetic acid] |
| ≥ 1000 nM |  | N[C@H](Cc1ccccc1)[C@H](O)C(=O)N[C@H](C(=O)O)C1CCOCC1 [Compound 21, 2-[[(2S,3R)-3-amino-2-hydroxy-4-phenyl-butanoyl]amino]-2-tetrahydropyran-4-yl-acetic acid] |
| ≥ 1000 nM |  | N[C@H](Cc1ccccc1)[C@H](O)C(=O)NC(CC1CC(F)(F)C1)C(=O)O (stereo partly drawn) [Compound 22, 2-[[(2S,3R)-3-amino-2-hydroxy-4-phenyl-butanoyl]amino]-3-(3,3-difluorocyclobutyl)propanoic acid] |
| < 100 nM |  | N[C@H](Cc1ccccc1)[C@H](O)C(=O)NC(CC1CCOCC1)C(=O)O (stereo partly drawn) [Compound 23, 2-[[(2S,3R)-3-amino-2-hydroxy-4-phenyl-butanoyl]amino]-3-tetrahydropyran-4-yl-propanoic acid] |
| ≥ 1000 nM |  | CCC(c1ccccc1)C(NC(=O)[C@@H](O)[C@H](N)Cc1ccccc1)C(=O)O (stereo partly drawn) [Compound 24, 2-[[(2S,3R)-3-amino-2-hydroxy-4-phenyl-butanoyl]amino]-3-phenyl-pentanoic acid] |
| ≥ 1000 nM |  | N[C@H](Cc1ccccc1)[C@H](O)C(=O)N[C@@H](Cc1ccccc1Br)C(=O)O [Compound 26, 2-[[(2S,3R)-3-amino-2-hydroxy-4-phenyl-butanoyl]amino]-3-(2-bromophenyl)propanoic acid] |
| ≥ 1000 nM |  | N[C@H](Cc1ccccc1)[C@H](O)C(=O)NC(C(=O)O)c1ccccc1C(F)(F)F (stereo partly shown) [Compound 27] |
| ≥ 1000 nM |  | N[C@H](Cc1ccccc1)[C@H](O)C(=O)NC(C(=O)O)C1CCNCC1 (stereo partly shown) [Compound 29] |
| 100 to 1000 nM |  | N[C@H](Cc1ccccc1)[C@H](O)C(=O)NC(C(=O)O)C1CCCCCC1 (stereo partly shown) [Compound 30] |
| < 100 nM |  | N[C@H](Cc1ccccc1)[C@H](O)C(=O)N[C@H](C(=O)O)c1cccc(OC(F)(F)F)c1 [Compound 31, (S)-2-((2S,3R)-3-amino-2-hydroxy-4-phenylbutanamido)-2-(3-(trifluoromethoxy)phenyl)acetic acid] |
| ≥ 1000 nM |  | COc1cccc(C(NC(=O)[C@@H](O)[C@H](N)Cc2ccccc2)C(=O)O)c1 (stereo partly shown) [Compound 32] |

| IC50 (TABLE 1) | IC50 (TABLE 2) | Compound |
| --- | --- | --- |
| ≥ 1000 nM |  | N[C@H](Cc1ccccc1)[C@H](O)C(=O)N[C@@H](Cc1cccc(Br)c1)C(=O)O [Compound 33] |
| 100 to 1000 nM |  | N[C@H](Cc1ccccc1)[C@H](O)C(=O)N[C@H](C(=O)O)C1CCC(F)(F)CC1 [Compound 34] |
| ≥ 1000 nM |  | N[C@H](Cc1ccccc1)[C@H](O)C(=O)N[C@@H](C(=O)O)c1cccc(C(F)(F)F)c1 [Compound 35] |
| < 100 nM |  | N[C@H](Cc1ccccc1)[C@H](O)C(=O)N[C@H](C(=O)O)c1cccc(C(F)(F)F)c1 [Compound 36] |
| ≥ 1000 nM |  | CC1(C)CC(C(NC(=O)[C@@H](O)[C@H](N)Cc2ccccc2)C(=O)O)CCO1 (stereo partly shown) [Compound 38] |
| ≥ 1000 nM |  | CC(C)C[C@H](NC(=O)[C@@H](O)[C@H](N)Cc1ccc(Br)cc1)C(=O)O [Compound 39] |
| ≥ 1000 nM |  | CC(C)C[C@H](NC(=O)[C@@H](O)[C@H](N)Cc1ccccc1Br)C(=O)O [Compound 40] |
| ≥ 1000 nM |  | CC(C)C[C@H](NC(=O)[C@@H](O)[C@H](N)Cc1cccc(Br)c1)C(=O)O [Compound 41] |
| ≥ 1000 nM |  | NC(=O)C(NC(=O)[C@@H](O)[C@H](N)Cc1ccccc1)c1cccc(C(F)(F)F)c1 (stereo partly shown) [Compound 42] |
| ≥ 1000 nM |  | N[C@H](Cc1ccccc1)[C@H](O)C(=O)NC(c1cccc(C(F)(F)F)c1)c1nnn[nH]1 (stereo partly shown) [Compound 43] |
| ≥ 1000 nM |  | NC(=O)[C@@H](NC(=O)[C@@H](O)[C@H](N)Cc1ccccc1)c1cccc(OC(F)(F)F)c1 [Compound 44] |
| 100 to 1000 nM |  | N[C@H](Cc1ccccc1)[C@H](O)C(=O)NC(C(=O)NO)c1cccc(C(F)(F)F)c1 (stereo partly shown) [Compound 45] |
| < 100 nM |  | N[C@H](Cc1ccc(Cl)cc1)[C@H](O)C(=O)N[C@H](C(=O)O)c1cccc(C(F)(F)F)c1 [Compound 49] |
| ≥ 1000 nM |  | N[C@H](Cc1ccccc1)[C@H](O)C(=O)N[C@H](C(=O)NO)c1cccc(OC(F)(F)F)c1 [Compound 52] |
| 100 to 1000 nM |  | N[C@H](Cc1ccccc1)[C@H](O)C(=O)N[C@H](C(=O)NO)c1cccc(OC(F)(F)F)c1 [Compound 53] |
| ≥ 1000 nM |  | CS(=O)(=O)NC(=O)C(NC(=O)[C@@H](O)[C@H](N)Cc1ccccc1)c1cccc(C(F)(F)F)c1 (stereo partly shown) [Compound 55] |
| < 100 nM |  | N[C@H](Cc1ccccc1)[C@H](O)C(=O)NC(c1cccc(C(F)(F)F)c1)c1n[nH]c(=O)o1 (stereo partly shown) [Compound 56] |
| ≥ 1000 nM |  | NC(Cc1cccc(OC(F)(F)F)c1)C(O)C(=O)N[C@H](C(=O)O)c1cccc(OC(F)(F)F)c1 (stereo partly shown) [Compound 57] |
| 100 to 1000 nM |  | N[C@H](Cc1ccccc1OC(F)(F)F)[C@H](O)C(=O)N[C@H](C(=O)O)c1cccc(OC(F)(F)F)c1 [Compound 61] |
|  | ≥ 1000 nM | N[C@H](Cc1ccccc1)[C@H](O)C(=O)NC(c1cccc(C(F)(F)F)c1)C(F)(F)C(=O)O (stereo partly shown) [Compound 64] |
|  | < 100 nM | N[C@H](Cc1ccccc1)[C@H](O)C(=O)NC(C(=O)O)c1cccc(OC(F)F)c1 (stereo partly shown) [Compound 65] |
|  | ≥ 1000 nM | N[C@H](Cc1ccccc1)[C@H](O)C(=O)NC(C(=O)O)c1cc(C(F)(F)F)cc(C(F)(F)F)c1 (stereo partly shown) [Compound 66] |
|  | ≥ 1000 nM | N[C@H](Cc1ccccc1)[C@H](O)C(=O)NC(C(=O)O)c1cc(C(F)(F)F)ccc1F (stereo partly shown) [Compound 67] |

| Compound | IC50 (TABLE 1) | IC50 (TABLE 2) |
| --- | --- | --- |
| N[C@H](Cc1ccccc1)[C@H](O)C(=O)N[C@@H](Cc1ccc(F)cc1)C(=O)O [Compound 1, (S)-2-((2S,3R)-3-amino-2-hydroxy-4-phenylbutanamido)-3-(4-fluorophenyl)propanoic acid] | ≥ 1000 nM |  |
| N[C@H](Cc1ccccc1)[C@H](O)C(=O)N[C@@H](Cc1ccc(Br)cc1)C(=O)O [Compound 25, 2-[[(2S,3R)-3-amino-2-hydroxy-4-phenyl-butanoyl]amino]-3-(4-bromophenyl)propanoic acid] | < 100 nM |  |
